Data published in patent publication US7879566B2, “Methods for the identification of modulators of OSGPR114 or OSGPR78 activity, and their use in the treatment of disease” (OSI Pharmaceuticals, Inc., priority 2003, dated 2011).
pEC50: −log10 of the molar value.

Legend:
SHP-2 in HCT-8 cells = experiment: SHP-2 activation, phospho-specific antibody; type: cell-based, human; conditions: 10 uM
Description: FIGS. 25A-C. LPA (10 uM) activation of Shc (A), paxillin (B) and SHP-2(C) in HCT-8 cell lysates. Phospho-specific antibodies were used to detect the activated proteins.
Many of the growth and survival signaling pathways of cancer cells have been identified. […] The protein She is an adaptor protein and the protein phosphatase SHP-2 are known to link the activation of multiple growth factor receptors to their downstream signaling pathways in cancer cells (For review see Yart et al. (2003) Current Cancer Drug Targets 3:177-192). These proteins are involved in mitogenic signaling by linking growth stimuli to the Ras-mitogen-activated protein kinase cascade and the PI3K survival pathway. […] Additionally, paxillin is a scaffold molecule intricately involved in the regulation of focal adhesions in cancer cells. It is therefore involved in the regulation of cell spreading and motility and is controlled by a multitude of signaling moieties including growth factors, and their downstream signaling molecules. Paxillin recruits these signaling components into specific cell compartments known as focal adhesions (For review, see Schaller (2001) Oncogene 20:6459-72). […] By treating HCT-8 cells with LPA (10 uM), the effect of LPA on the phosphorylation of paxillin was measured using activation state specific antibodies ([…]).

EGFR in HCT-8 cells = experiment: EGFR transactivation, Western blot with phospho-tyrosine specific antibody; type: cell-based, human; conditions: 10 μM
From the text: FIG. 24: Western blot showing the ability of LPA to transactivate EGFR in HCT-8 cells, as assessed using a phospho-tyrosine specific antibody.
The ability of LPA to phosphorylate ERK1/2 has been extensively described in the literature, and three principal mechanisms have been described for this effect. […] The first of these pathways involves β-arrestin recruitment and activation of Src, which then transactivates the RTK. The second of these pathways involves She which is recruited by LPA and can itself activate membrane-bound metalloproteases (e.g. ADAM10) which causes release of heparin-bound epidermal growth factor (EGF) which can then activate EGF receptor. EGF and activation of the EGF receptor is a well known proliferative pathway for many cell lines. The possibility of LPA causing transactivation of EGFR in HCT-8 cells was tested as the EGFR signaling pathway is known to be present and active in these cells. […] From the LPA-based literature, the potential for LPA to also transactivate other RTKs, such as PDGFR for example, in these cells is a very likely possibility.

OSGPR114 = biological target: T1, OSGPR114 (Homo sapiens, UniProt Q9H1C0); experiment: FLIPR intracellular calcium assay, CHO-OSGPR114 cells; type: cell-based; conditions: FLIPR, read-out: EC50, intracellular calcium response
T1 construct: expressed in transfected cells; host or cells: engineered yeast (GPA1 replaced by G-alpha chimeras, STE3 deleted; Fus1p-LacZ reporters)
T1 sequence (Q9H1C0 whole entry): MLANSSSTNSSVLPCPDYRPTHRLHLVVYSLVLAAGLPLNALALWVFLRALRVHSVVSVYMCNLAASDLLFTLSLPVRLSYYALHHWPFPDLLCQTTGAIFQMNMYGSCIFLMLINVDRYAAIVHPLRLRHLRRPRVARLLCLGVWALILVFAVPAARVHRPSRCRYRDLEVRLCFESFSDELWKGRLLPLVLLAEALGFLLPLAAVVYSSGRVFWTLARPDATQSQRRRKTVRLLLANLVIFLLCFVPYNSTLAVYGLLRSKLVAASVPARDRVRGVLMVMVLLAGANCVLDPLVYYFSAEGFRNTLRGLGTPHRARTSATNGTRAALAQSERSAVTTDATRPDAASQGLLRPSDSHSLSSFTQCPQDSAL
Description: (§1) For example, in one method employed herein, CHO and CHO-114 cells were seeded at a concentration of 50K cells/well in […] growth media in clear, flat-bottom 96-well black assay plates and incubated overnight at 37 C. The growth media is aspirated from the cells and a dye solution ([…]) added to each well. The dye solution consists of 2 mM probenecid, 2 mM HBSS, […] in a growth media minus antibiotics solution. The cells are loaded with the dye for 1 h at 37 C before aspiration and rinsing with wash buffer (20 mM HBSS+2 mM Probenecid). Compound plates are then prepared with 4× compound/control. 150 ul of wash buffer is added to each well. Once the FLIPR is fully calibrated, compound is added to the plate and the release of calcium measured using 0.4 exposure length and a laser set at 0.3W.

CHO cells = experiment: FLIPR intracellular calcium assay, CHO cells; type: cell-based, hamster
Description: as §1

ERK in HCT-8 cells = experiment: ERK phosphorylation by LPA; type: cell-based, human; conditions: 10 μM LPA, 3 mins
Description: (§2) FIG. 23: Ability of LPA to phosphorylate ERK in cell lines known to express OSGPR114. 10 μM LPA and 1 μM EGF were used for this experiment, and the cells were stimulated with ligand for 3 mins prior to lysing.
(§3) One of the principal proliferative signaling pathways is the activation of ERK. […] However, the ability of LPA acting at OSGPR114 to effect ERK is unknown. HCT-8 cells, which express OSGPR114 at high levels, provide one of the best models available. […] This evidence supporting the hypothesis that LPA, likely acting at least in part at OSGPR114, induces ERK activation, a signaling pathway that is known to stimulate cellular proliferation.

ERK in ASPC-1 cells = experiment: ERK phosphorylation by LPA; type: cell-based, human; conditions: 10 μM LPA, 3 mins
Description: as §2, §3

Q: Which results are given for lysophosphatidic acid [LPA]?
A: phosphorylation of SHP-2 (SHP-2 in HCT-8 cells): induced the phosphorylation; EGFR transactivation (EGFR in HCT-8 cells): capable of transactivating EGFR; pEC50 (OSGPR114): 7.23; change in intracellular calcium concentration (CHO cells): no significant change; ERK activation (ERK in HCT-8 cells): stimulate ERK; ERK activation (ERK in ASPC-1 cells): stimulate ERK
